Data published in US10870647B2, “Imidazopyridine derivative, method for preparing same, and pharmaceutical composition containing same as active ingredient for preventing or treating cancer” (DAEGU-GYEONGBUK MEDICAL INNOVATION FOUNDATION, priority 2016, dated 2020).

Tests used:
Assay in all cases: Kinase selectivity, scanMAX Kinase assay panel (DiscoverX), % control at 1 uM
Type in all cases: binding
[1] = biological target: T1, scanMAX Kinase assay panel (Homo sapiens, UniProt Q9P289); settings: MST4; 1 uM; read-out: Percent Control (%)
T1 construct: purchased DiscoverX
T1 sequence (Q9P289 whole entry): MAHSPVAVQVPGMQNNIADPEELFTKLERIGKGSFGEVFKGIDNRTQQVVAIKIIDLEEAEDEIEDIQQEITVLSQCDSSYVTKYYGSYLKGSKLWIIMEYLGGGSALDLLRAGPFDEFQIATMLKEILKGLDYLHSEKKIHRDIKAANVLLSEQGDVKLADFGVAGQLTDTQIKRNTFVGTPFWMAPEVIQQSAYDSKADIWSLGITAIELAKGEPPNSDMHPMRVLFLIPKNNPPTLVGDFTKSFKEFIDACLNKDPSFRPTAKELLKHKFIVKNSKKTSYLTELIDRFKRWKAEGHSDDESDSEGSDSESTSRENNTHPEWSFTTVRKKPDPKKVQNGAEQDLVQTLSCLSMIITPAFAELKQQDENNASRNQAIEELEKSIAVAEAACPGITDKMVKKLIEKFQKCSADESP
How it was run: (§1)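 1 uM cpd (DMSO) per kinase; % ctrl = [cpd − pos ctrl]/[neg ctrl − pos ctrl] × 100; hit if <35.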

[2] = biological target: T2, scanMAX Kinase assay panel (Homo sapiens, UniProt Q8NE63); settings: HIPK4; 1 uM; read-out: Percent Control (%)
T2 construct: purchased DiscoverX
T2 sequence (Q8NE63 1-616): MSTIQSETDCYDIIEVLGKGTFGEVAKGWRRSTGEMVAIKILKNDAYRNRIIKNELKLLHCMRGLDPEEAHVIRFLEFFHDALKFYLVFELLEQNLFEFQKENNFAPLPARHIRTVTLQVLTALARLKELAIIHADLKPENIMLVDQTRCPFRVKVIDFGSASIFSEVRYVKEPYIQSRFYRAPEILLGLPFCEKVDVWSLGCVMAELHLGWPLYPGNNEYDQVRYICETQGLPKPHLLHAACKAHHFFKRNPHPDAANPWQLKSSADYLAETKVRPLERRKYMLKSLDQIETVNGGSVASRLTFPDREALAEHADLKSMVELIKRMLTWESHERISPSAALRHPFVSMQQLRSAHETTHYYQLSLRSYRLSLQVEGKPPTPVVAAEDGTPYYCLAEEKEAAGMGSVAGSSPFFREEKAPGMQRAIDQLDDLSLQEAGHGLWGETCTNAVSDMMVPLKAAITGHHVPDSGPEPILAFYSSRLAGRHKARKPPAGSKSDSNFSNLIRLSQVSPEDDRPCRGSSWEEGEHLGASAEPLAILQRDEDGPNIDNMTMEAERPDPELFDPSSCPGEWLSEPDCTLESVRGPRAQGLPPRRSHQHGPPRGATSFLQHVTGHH
How it was run: as §1

[3] = biological target: T3, scanMAX Kinase assay panel (Homo sapiens, UniProt O15146); settings: MUSK; 1 uM; read-out: Percent Control (%)
T3 construct: purchased DiscoverX
T3 sequence (O15146 24-869): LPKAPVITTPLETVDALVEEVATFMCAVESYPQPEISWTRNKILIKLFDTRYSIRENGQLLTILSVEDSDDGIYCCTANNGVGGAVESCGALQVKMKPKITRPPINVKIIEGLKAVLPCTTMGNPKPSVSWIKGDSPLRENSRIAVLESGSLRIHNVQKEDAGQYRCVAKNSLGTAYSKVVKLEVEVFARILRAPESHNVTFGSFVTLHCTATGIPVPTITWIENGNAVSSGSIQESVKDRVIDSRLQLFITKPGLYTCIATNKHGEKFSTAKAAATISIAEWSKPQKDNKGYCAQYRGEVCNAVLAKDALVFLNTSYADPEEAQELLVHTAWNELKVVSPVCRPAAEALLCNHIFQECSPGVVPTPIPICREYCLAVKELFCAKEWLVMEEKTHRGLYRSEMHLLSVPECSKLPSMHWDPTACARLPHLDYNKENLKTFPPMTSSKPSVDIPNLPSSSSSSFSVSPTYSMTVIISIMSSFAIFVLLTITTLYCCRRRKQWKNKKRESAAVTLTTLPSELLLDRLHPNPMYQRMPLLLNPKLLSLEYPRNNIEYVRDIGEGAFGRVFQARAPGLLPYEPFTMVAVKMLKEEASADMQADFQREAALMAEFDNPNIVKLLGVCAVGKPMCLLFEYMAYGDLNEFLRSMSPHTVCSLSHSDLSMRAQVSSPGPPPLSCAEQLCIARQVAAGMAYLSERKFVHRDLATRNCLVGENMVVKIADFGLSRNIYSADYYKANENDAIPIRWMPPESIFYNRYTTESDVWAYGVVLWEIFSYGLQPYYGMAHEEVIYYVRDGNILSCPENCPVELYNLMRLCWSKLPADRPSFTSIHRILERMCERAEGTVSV
How it was run: as §1

[4] = biological target: T4, scanMAX Kinase assay panel (Homo sapiens, UniProt P51451); settings: BLK; 1 uM; read-out: Percent Control (%)
T4 construct: purchased DiscoverX
T4 sequence (P51451 whole entry): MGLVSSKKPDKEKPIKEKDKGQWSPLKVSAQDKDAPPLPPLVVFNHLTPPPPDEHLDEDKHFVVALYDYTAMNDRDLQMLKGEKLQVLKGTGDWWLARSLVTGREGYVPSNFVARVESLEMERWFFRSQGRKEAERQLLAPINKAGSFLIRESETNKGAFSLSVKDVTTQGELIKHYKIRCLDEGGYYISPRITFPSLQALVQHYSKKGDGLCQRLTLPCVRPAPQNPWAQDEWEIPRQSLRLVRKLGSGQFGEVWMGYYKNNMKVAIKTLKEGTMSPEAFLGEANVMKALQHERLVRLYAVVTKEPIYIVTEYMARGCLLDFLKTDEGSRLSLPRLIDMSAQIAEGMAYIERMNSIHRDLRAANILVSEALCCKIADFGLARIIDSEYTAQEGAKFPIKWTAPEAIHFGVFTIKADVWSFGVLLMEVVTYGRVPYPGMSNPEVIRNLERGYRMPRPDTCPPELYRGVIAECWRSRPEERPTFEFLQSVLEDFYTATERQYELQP
How it was run: as §1

[5] = biological target: T5, scanMAX Kinase assay panel (Homo sapiens, UniProt Q9Y2I7); settings: PIKFYVE; 1 uM; read-out: Percent Control (%)
T5 construct: purchased DiscoverX
T5 sequence (Q9Y2I7 whole entry): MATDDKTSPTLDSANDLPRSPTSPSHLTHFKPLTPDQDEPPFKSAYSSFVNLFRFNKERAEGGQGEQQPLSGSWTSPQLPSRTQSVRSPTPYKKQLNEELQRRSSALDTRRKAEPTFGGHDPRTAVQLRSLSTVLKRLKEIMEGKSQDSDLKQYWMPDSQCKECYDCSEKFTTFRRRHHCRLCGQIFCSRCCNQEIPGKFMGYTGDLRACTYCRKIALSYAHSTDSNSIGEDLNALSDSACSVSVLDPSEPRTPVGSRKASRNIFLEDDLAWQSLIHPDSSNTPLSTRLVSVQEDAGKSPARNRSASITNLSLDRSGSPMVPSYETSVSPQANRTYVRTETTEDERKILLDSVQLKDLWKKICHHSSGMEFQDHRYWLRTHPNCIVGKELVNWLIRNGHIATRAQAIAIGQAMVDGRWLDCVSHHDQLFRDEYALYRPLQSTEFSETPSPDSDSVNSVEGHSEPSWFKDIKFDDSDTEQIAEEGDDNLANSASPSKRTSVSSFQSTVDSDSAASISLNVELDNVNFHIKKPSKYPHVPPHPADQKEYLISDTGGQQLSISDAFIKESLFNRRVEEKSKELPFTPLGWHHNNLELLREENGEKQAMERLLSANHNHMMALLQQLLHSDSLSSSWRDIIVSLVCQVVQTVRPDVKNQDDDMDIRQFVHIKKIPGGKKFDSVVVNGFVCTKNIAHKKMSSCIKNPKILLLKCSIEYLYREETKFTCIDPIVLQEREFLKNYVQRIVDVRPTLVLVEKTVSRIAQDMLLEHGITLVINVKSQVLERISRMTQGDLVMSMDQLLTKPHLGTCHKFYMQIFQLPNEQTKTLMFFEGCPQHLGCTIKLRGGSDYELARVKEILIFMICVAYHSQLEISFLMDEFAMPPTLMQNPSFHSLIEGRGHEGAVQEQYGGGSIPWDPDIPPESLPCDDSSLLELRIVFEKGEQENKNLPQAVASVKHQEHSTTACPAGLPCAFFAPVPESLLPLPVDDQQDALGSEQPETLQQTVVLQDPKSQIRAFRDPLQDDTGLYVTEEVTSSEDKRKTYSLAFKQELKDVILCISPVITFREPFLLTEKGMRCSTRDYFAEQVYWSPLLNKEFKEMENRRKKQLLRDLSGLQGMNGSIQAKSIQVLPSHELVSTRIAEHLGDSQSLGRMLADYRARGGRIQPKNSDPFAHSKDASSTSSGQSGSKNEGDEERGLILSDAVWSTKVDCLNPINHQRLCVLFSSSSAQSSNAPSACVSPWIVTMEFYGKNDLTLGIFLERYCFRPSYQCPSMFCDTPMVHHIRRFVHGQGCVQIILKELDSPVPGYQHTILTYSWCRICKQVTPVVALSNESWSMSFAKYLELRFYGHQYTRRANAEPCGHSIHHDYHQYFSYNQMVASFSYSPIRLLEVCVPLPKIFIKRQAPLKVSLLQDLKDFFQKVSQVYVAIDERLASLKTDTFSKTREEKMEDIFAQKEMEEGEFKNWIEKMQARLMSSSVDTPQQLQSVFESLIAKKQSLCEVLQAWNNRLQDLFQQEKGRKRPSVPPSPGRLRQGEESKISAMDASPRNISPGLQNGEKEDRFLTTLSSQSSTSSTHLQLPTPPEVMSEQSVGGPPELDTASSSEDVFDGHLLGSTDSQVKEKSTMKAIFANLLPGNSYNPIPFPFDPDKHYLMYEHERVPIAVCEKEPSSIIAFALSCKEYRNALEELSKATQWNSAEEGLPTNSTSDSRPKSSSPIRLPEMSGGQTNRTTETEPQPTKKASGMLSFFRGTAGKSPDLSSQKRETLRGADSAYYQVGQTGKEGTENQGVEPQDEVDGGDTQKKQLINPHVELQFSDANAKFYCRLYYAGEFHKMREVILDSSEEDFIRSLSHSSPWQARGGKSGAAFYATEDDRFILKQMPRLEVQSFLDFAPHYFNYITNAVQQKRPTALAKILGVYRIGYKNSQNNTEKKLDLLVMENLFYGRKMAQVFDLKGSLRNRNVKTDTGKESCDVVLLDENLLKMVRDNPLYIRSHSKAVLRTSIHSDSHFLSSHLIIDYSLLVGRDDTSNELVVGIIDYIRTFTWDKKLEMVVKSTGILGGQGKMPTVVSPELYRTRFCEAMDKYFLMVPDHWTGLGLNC
How it was run: as §1

[6] = biological target: T6, scanMAX Kinase assay panel (Homo sapiens, UniProt P78356); settings: PIP5K2B; 1 uM; read-out: Percent Control (%)
T6 construct: purchased DiscoverX
T6 sequence (P78356 1-416): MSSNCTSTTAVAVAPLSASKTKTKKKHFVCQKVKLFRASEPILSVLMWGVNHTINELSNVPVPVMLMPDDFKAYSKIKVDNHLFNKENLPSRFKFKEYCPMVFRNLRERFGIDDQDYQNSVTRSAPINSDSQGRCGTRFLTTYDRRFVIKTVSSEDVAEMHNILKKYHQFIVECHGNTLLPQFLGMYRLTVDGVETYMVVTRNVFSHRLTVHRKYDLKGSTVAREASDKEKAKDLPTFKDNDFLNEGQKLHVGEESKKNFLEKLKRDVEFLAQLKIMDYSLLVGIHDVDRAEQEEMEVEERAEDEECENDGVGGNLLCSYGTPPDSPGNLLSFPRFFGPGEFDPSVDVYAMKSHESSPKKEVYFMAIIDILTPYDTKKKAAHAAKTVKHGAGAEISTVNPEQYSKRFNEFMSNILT
How it was run: as §1

[7] = biological target: T7, scanMAX Kinase assay panel (Homo sapiens, UniProt P53355); settings: DAPK1; 1 uM; read-out: Percent Control (%)
T7 construct: purchased DiscoverX
T7 sequence (P53355 whole entry): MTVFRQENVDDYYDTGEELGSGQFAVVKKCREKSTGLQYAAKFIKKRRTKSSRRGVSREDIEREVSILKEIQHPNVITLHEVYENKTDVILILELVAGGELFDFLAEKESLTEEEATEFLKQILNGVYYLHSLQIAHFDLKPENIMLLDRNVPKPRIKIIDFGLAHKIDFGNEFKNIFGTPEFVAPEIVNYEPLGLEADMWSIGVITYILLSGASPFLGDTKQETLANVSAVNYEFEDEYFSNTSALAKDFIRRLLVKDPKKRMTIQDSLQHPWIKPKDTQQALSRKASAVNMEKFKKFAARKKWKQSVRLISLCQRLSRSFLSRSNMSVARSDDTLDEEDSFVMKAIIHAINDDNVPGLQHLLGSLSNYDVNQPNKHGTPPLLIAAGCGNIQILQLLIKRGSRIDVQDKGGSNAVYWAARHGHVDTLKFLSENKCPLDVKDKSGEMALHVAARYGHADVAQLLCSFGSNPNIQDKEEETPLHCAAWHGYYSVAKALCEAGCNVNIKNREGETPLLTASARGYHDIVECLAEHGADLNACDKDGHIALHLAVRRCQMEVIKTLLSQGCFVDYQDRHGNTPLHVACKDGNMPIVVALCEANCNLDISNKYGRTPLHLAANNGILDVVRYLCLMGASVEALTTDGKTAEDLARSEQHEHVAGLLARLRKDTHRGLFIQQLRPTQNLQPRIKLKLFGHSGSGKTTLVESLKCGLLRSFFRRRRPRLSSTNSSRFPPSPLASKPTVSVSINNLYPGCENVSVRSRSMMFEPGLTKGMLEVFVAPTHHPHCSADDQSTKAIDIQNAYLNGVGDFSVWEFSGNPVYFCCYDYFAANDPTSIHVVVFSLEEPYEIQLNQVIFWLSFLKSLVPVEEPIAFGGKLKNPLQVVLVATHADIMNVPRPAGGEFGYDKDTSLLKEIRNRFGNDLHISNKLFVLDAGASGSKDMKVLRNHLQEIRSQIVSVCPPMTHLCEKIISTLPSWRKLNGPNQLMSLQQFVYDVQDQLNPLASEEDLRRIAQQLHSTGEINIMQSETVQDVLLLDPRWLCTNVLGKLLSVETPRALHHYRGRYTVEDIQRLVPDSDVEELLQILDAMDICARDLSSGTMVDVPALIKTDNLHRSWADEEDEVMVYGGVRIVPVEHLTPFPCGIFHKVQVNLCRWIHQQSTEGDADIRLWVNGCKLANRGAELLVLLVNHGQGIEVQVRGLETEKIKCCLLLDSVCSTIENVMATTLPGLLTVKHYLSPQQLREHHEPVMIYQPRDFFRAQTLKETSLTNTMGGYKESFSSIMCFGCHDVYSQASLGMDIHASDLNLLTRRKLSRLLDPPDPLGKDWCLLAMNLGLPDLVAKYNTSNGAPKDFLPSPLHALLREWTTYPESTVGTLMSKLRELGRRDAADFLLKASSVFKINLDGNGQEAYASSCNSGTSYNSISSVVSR
How it was run: as §1

Row | Structure (SMILES) | remaining binding at 1 µM [1] [%] | remaining binding at 1 µM [2] [%] | remaining binding at 1 µM [3] [%] | remaining binding at 1 µM [4] [%] | remaining binding at 1 µM [5] [%] | remaining binding at 1 µM [6] [%] | remaining binding at 1 µM [7] [%]
1 | Cc1ccc(C(=O)Nc2ccc(CN3CCN(C)CC3)c(C(F)(F)F)c2)cc1C#Cc1cnc2c(Nc3cnn(C)c3)cccn12 [Example 1, 4-methyl-3-((8-((1-methyl-1H-pyrazol-4-yl)amino)imidazo[1,2-a]pyridin-3-yl)ethynyl)-N-(4-((4-methylpiperazin-1-yl)methyl)-3-(trifluoromethyl)phenyl)benzamide] | 55 | 2 | 1 | 0 | 84 | 82 | 87
2 | Cc1cn(-c2cc(NC(=O)c3ccc(C)c(C#Cc4cnc5c(Nc6cnn(C)c6)cccn45)c3)cc(C(F)(F)F)c2)cn1 [Example 12, 4-methyl-N-(3-(4-methyl-1H-imidazol-1-yl)-5-(trifluoromethyl)phenyl)-3-((8-((1-methyl-1H-pyrazol-4-yl)amino)imidazo[1,2-a]pyridin-3-yl)ethynyl)benzamide] | 91 | 66 | 21 | 1 | 65 | 100 | 80
3 | Cc1ccc(NC(=O)C2(C(=O)Nc3ccc(F)cc3)CC2)cc1C#Cc1cnc2c(Nc3cnn(C(C)C)c3)cccn12 [Example 78] | 100 | 84 | 63 | 35 | 91 | 79 | 98
